Source: the NIST ThermoML archive (doi:10.1021/acs.jced.8b00589)

Assay: xn = mol fraction of the nth substance listed
Conditions: for surface tension liquid-gas: Ring tensiometer; for viscosity / speed of sound / mass density: 100 kPa, Liquid; for viscosity: Capillary tube (Ostwald / Ubbelohde) method; for speed of sound: Frequency=2 MHz, Linear variable-path acoustic interferometer; for mass density: Vibrating tube method

CCC(C)(C)OC [2-methoxy-2-methylbutane] + Cc1cccc(C)c1
Conditions | mass density [kg/m3] | speed of sound [m/s] | surface tension liquid-gas [mN/m] | viscosity [mPa·s]
298.15 K, x1 = 0.1462 | 844.1 | 1299 | 26.87 | 0.561
298.15 K, x1 = 0.2667 | 833.4 | 1269.4 | 25.84 | 0.541
298.15 K, x1 = 0.4165 | 821.1 | 1235 | 24.69 | 0.519
298.15 K, x1 = 0.4774 | 816.2 | 1218.9 | 24.24 | 0.51
298.15 K, x1 = 0.5331 | 811.4 | 1205.2 | 23.82 | 0.502
298.15 K, x1 = 0.6068 | 805.3 | 1189.2 | 23.22 | 0.491
298.15 K, x1 = 0.7371 | 794.6 | 1165.8 | 22.07 | 0.47
298.15 K, x1 = 0.8642 | 782.7 | 1138 | 20.93 | 0.447
298.15 K, x1 = 1 | 765.6 | 1118 | 19.72 | 0.424
308.15 K, x1 = 0.1462 | 833.6 | 1254.4 | 25.64 | 0.501
308.15 K, x1 = 0.2667 | 822.5 | 1220.7 | 24.62 | 0.485
308.15 K, x1 = 0.4165 | 810.2 | 1182.3 | 23.47 | 0.468
308.15 K, x1 = 0.4774 | 805.1 | 1167 | 23.02 | 0.461
308.15 K, x1 = 0.5331 | 800.3 | 1155.1 | 22.61 | 0.454
308.15 K, x1 = 0.6068 | 794.4 | 1140.5 | 22.06 | 0.445
308.15 K, x1 = 0.7371 | 783.3 | 1118.1 | 20.94 | 0.428
308.15 K, x1 = 0.8642 | 771.8 | 1092.8 | 19.83 | 0.409
308.15 K, x1 = 1 | 756.3 | 1075.6 | 18.66 | 0.39
318.15 K, x1 = 0.1462 | 823.8 | 1209.3 | 24.36 | 0.46
318.15 K, x1 = 0.2667 | 813.1 | 1174.2 | 23.37 | 0.445
318.15 K, x1 = 0.4165 | 800.2 | 1134.5 | 22.25 | 0.428
318.15 K, x1 = 0.4774 | 794.8 | 1118.7 | 21.81 | 0.421
318.15 K, x1 = 0.5331 | 790.4 | 1105.4 | 21.41 | 0.415
318.15 K, x1 = 0.6068 | 784.1 | 1090.6 | 20.9 | 0.407
318.15 K, x1 = 0.7371 | 772.8 | 1067.2 | 19.83 | 0.391
318.15 K, x1 = 0.8642 | 761.3 | 1045.9 | 18.77 | 0.374
318.15 K, x1 = 1 | 746.3 | 1030.2 | 17.65 | 0.357
323.15 K, x1 = 0.1462 | 819.2 | 1186.3 | 23.73 | 0.424
323.15 K, x1 = 0.2667 | 808 | 1150.5 | 22.75 | 0.412
323.15 K, x1 = 0.4165 | 795.3 | 1107.7 | 21.65 | 0.399
323.15 K, x1 = 0.4774 | 789.8 | 1090.3 | 21.21 | 0.393
323.15 K, x1 = 0.5331 | 785.1 | 1076.2 | 20.82 | 0.389
323.15 K, x1 = 0.6068 | 778.8 | 1061.4 | 20.32 | 0.382
323.15 K, x1 = 0.7371 | 767.7 | 1037.8 | 19.27 | 0.369
323.15 K, x1 = 0.8642 | 755.8 | 1017 | 18.23 | 0.354
323.15 K, x1 = 1 | 741.4 | 1003 | 17.13 | 0.34
328.15 K, x1 = 0.1462 | 814.4 | 1160.6 | 23.1 | 0.414
328.15 K, x1 = 0.2667 | 803.3 | 1124 | 22.14 | 0.401
328.15 K, x1 = 0.4165 | 790.5 | 1082.2 | 21.05 | 0.387
328.15 K, x1 = 0.4774 | 785.2 | 1065.1 | 20.62 | 0.382
328.15 K, x1 = 0.5331 | 780.3 | 1051.8 | 20.23 | 0.377
328.15 K, x1 = 0.6068 | 773.7 | 1037.4 | 19.73 | 0.37
328.15 K, x1 = 0.7371 | 762.6 | 1013.9 | 18.71 | 0.357
328.15 K, x1 = 0.8642 | 750.8 | 995.44 | 17.69 | 0.342
328.15 K, x1 = 1 | 736.5 | 985.2 | 16.62 | 0.328
